From the supplement of paper PMC10627819

Columns and labels:
B. subtilis 168 [1] = experiment: fitness (endpoint OD595 vs no drug) (fraction); higher = more growth
Procedure, shortened: (§1)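 Bacterial fitness was scored as optical density at the stationary-phase transition relative to the robust mean of no-drug control wells. Scores are capped at 1. The growth data were OD595 readings every 30 min for 14 h at 37 °C, background-subtracted against the first reading, from 384-well plates inoculated at OD595 0.01 in TSB, LB Lennox or CY.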

S. aureus Newman [2] = experiment: as above
Procedure, shortened: as §1

S. aureus DSM 20231 [3] = experiment: as above
Procedure, shortened: as §1

S. pneumoniae D39V [4] = experiment: as above
Procedure, shortened: as §1

B. subtilis 168 [5] = experiment: Bliss interaction score (quartile over a dose matrix) (fitness difference); higher = more antagonism (negative = synergy)
Procedure, shortened: (§2)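 Growth was read as OD595 when cultures entered stationary phase, and each value was divided by the plate's robust no-drug mean and capped at 1. This normalised ratio is the fitness value, and fitness for each single drug came from the combination data. The Bliss score subtracts the expected fitness, taken as the product, from the observed fitness and is given as quartiles across technical, biological and donor/recipient replicates.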

S. aureus Newman [6] = experiment: as above
Procedure, shortened: as §2

S. aureus DSM 20231 [7] = experiment: as above
Procedure, shortened: as §2

S. pneumoniae D39V [8] = experiment: as above
Procedure, shortened: as §2
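Throughout, for Bliss interaction score (quartile over a dose matrix): first quartile when negative (synergy) and third quartile when positive (antagonism).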
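Throughout, for fitness (endpoint OD595 vs no drug): OD595 on entry to stationary phase over no-drug wells; at most 1.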

COc1c(N2C[C@@H]3CCCN[C@@H]3C2)c(F)cc2c(=O)c(C(=O)O)cn(C3CC3)c12 [Moxifloxacin] + CN1C2=CC=CC=C2N=C3C1=CC=CC3=O [Pyocyanin]
fitness
Details | partner 0.325 µg/mL | partner 0.65 µg/mL | partner 1.25 µg/mL | partner 1.3 µg/mL | partner 2.5 µg/mL | partner 5 µg/mL
B. subtilis 168 [1], first compound 0.0312 µg/mL | – | – | 0.0609 | – | 0.0599 | 0.0529
B. subtilis 168 [1], first compound 0.0625 µg/mL | – | – | 0.0538 | – | 0.0598 | 0.057
B. subtilis 168 [1], first compound 0.125 µg/mL | – | – | 0.0466 | – | 0.047 | 0.0468
B. subtilis 168 [1], first compound 2 µg/mL | – | – | 0.0183 | – | 0.0257 | 0.0378
B. subtilis 168 [1], first compound 4 µg/mL | – | – | 0.0241 | – | 0.0221 | 0.0304
B. subtilis 168 [1], first compound 8 µg/mL | – | – | 0.012 | – | 0.0127 | 0.0179
S. aureus DSM 20231 [3], first compound 0.0075 µg/mL | – | – | 0.836 | – | 0.755 | 0.665
S. aureus DSM 20231 [3], first compound 0.015 µg/mL | – | – | 0.743 | – | 0.711 | 0.569
S. aureus DSM 20231 [3], first compound 0.03 µg/mL | – | – | 0.678 | – | 0.706 | 0.567
S. aureus Newman [2], first compound 0.0075 µg/mL | – | – | 0.679 | – | 0.605 | 0.372
S. aureus Newman [2], first compound 0.015 µg/mL | – | – | 0.51 | – | 0.434 | 0.221
S. aureus Newman [2], first compound 0.03 µg/mL | – | – | 0.157 | – | 0.138 | 0.0727
S. pneumoniae D39V [4], first compound 0.005 µg/mL | ≥ 1 | 0.988 | – | 0.797 | – | –
S. pneumoniae D39V [4], first compound 0.01 µg/mL | ≥ 1 | 0.98 | – | 0.828 | – | –
S. pneumoniae D39V [4], first compound 0.02 µg/mL | ≥ 1 | 0.959 | – | 0.788 | – | –

one replicate
Details | fitness
S. aureus DSM 20231 [3], first compound 0.06 µg/mL, partner 1.25 µg/mL | 0.671
S. aureus DSM 20231 [3], first compound 0.06 µg/mL, partner 2.5 µg/mL | 0.658
S. aureus DSM 20231 [3], first compound 0.06 µg/mL, partner 5 µg/mL | 0.651
S. aureus DSM 20231 [3], first compound 0.12 µg/mL, partner 1.25 µg/mL | 0.493
S. aureus DSM 20231 [3], first compound 0.12 µg/mL, partner 2.5 µg/mL | 0.514
S. aureus DSM 20231 [3], first compound 0.12 µg/mL, partner 5 µg/mL | 0.47
S. pneumoniae D39V [4], first compound 0.0037 µg/mL, partner 0.325 µg/mL | 0.925
S. pneumoniae D39V [4], first compound 0.0037 µg/mL, partner 0.65 µg/mL | 0.871
S. pneumoniae D39V [4], first compound 0.0075 µg/mL, partner 0.325 µg/mL | 0.948
S. pneumoniae D39V [4], first compound 0.0075 µg/mL, partner 0.65 µg/mL | 0.883
S. pneumoniae D39V [4], first compound 0.015 µg/mL, partner 0.325 µg/mL | 0.911
S. pneumoniae D39V [4], first compound 0.015 µg/mL, partner 0.65 µg/mL | 0.91

Details | Bliss interaction score
B. subtilis 168 [5] | -0.0123
S. aureus DSM 20231 [7] | 0.0656
S. aureus Newman [6] | -0.0614
S. pneumoniae D39V [8] | 0.0702

O=C(O[C@@H]1Cc2c(O)cc(O)cc2O[C@@H]1c1cc(O)c(O)c(O)c1)c1cc(O)c(O)c(O)c1 [EGCG] + COc1c(N2C[C@@H]3CCCN[C@@H]3C2)c(F)cc2c(=O)c(C(=O)O)cn(C3CC3)c12 [Moxifloxacin]
fitness
Details | first compound 6.25 µg/mL | first compound 12.5 µg/mL | first compound 25 µg/mL | first compound 50 µg/mL
B. subtilis 168 [1], partner 0.0312 µg/mL | 0.0635 | 0.316 | 0.136 | –
B. subtilis 168 [1], partner 0.0625 µg/mL | 0.0647 | 0.0486 | 0.0468 | –
B. subtilis 168 [1], partner 0.125 µg/mL | 0.0455 | 0.0337 | 0.032 | –
B. subtilis 168 [1], partner 2 µg/mL | 0.0355 | 0.0567 | 0.0285 | –
B. subtilis 168 [1], partner 4 µg/mL | 0.0375 | 0.028 | 0.0104 | –
B. subtilis 168 [1], partner 8 µg/mL | 0.0396 | 0.0267 | 0.0587 | –
S. aureus DSM 20231 [3], partner 0.0075 µg/mL | – | 0.686 | 0.605 | 0.629
S. aureus DSM 20231 [3], partner 0.015 µg/mL | – | 0.615 | 0.628 | 0.594
S. aureus DSM 20231 [3], partner 0.03 µg/mL | – | 0.53 | 0.554 | –
S. aureus Newman [2], partner 0.0075 µg/mL | – | 0.704 | 0.695 | –
S. aureus Newman [2], partner 0.015 µg/mL | – | – | – | 0.582
S. aureus Newman [2], partner 0.03 µg/mL | – | 0.3 | – | 0.0803
S. pneumoniae D39V [4], partner 0.005 µg/mL | – | 0.942 | 0.947 | 0.973
S. pneumoniae D39V [4], partner 0.01 µg/mL | – | 0.966 | 0.973 | 0.989
S. pneumoniae D39V [4], partner 0.02 µg/mL | – | 0.918 | 0.933 | 0.931
S. pneumoniae D39V [4], partner 0.0312 µg/mL | – | 0.265 | 0.152 | 0.499
S. pneumoniae D39V [4], partner 0.0625 µg/mL | – | 0.0738 | 0.0517 | 0.944
S. pneumoniae D39V [4], partner 0.125 µg/mL | – | 0.0322 | 0.0297 | 0.69

fitness, S. aureus DSM 20231 [3], one replicate
Details | first compound 12.5 µg/mL | first compound 25 µg/mL | first compound 50 µg/mL
partner 0.06 µg/mL | 0.636 | 0.584 | 0.607
partner 0.12 µg/mL | 0.537 | 0.495 | 0.506

Details | Bliss interaction score
B. subtilis 168 [5] | 0.04
S. aureus DSM 20231 [7] | -0.0635
S. aureus Newman [6] | 0.103
S. pneumoniae D39V [8] | -0.0486
